{"source": "paper PMC5218480", "about": "(PLoS ONE, 2017)", "system": "MV-4-11 cells", "assay": "Gene expression microarray analysis (Affymetrix PrimeView) and GSEA", "type": "cell-based, human", "design": "RFU PODN (11730768_x_at) / Fold change /veh PODN (11730768_x_at) / RFU LINC00158 (11744669_a_at) / Fold change /veh LINC00158 (11744669_a_at) / RFU DUSP10 (11751237_a_at) / Fold change /veh DUSP10 (11751237_a_at) / RFU ID3 (11757404_x_at) / Fold change /veh ID3 (11757404_x_at) / RFU PLEKHG5 (11737974_s_at) / Fold change /veh PLEKHG5 (11737974_s_at) / RFU LRRC4B (11730491_at) / Fold change /veh LRRC4B (11730491_at) / RFU GIMAP4 (11747438_a_at) / Fold change /veh GIMAP4 (11747438_a_at) / RFU KRT8 (11758183_x_at) / Fold change /veh KRT8 (11758183_x_at) / RFU CNN1 (11734310_a_at) / Fold change /veh CNN1 (11734310_a_at) / RFU VPS37D (11726825_at) / Fold change /veh VPS37D (11726825_at) / RFU C10orf10 (11716522_x_at) / Fold change /veh C10orf10 (11716522_x_at) / RFU KIR2DL2 /// KIR2DL4 /// KIR2DL5A /// KIR2DL5B /// KIR2DS1 /// KIR2DS2 /// KIR2DS3 /// KIR2DS4 /// KIR3DL3 /// KIR3DL3 /// KIR3DS1 (11738374_at) / Fold change /veh KIR2DL2 /// KIR2DL4 /// KIR2DL5A /// KIR2DL5B /// KIR2DS1 /// KIR2DS2 /// KIR2DS3 /// KIR2DS4 /// KIR3DL3 /// KIR3DL3 /// KIR3DS1 (11738374_at) / RFU C1QL1 (11718748_at) / Fold change /veh C1QL1 (11718748_at) / RFU TMPRSS4 (11747572_a_at) / Fold change /veh TMPRSS4 (11747572_a_at) / RFU HAMP (11756126_x_at) / Fold change /veh HAMP (11756126_x_at) / RFU RNFT2 (11725882_a_at) / Fold change /veh RNFT2 (11725882_a_at) / RFU NR4A2 (11747474_a_at) / Fold change /veh NR4A2 (11747474_a_at) / RFU ABCC12 (11746883_a_at) / Fold change /veh ABCC12 (11746883_a_at) / RFU TMEM136 (11760407_x_at) / Fold change /veh TMEM136 (11760407_x_at) / RFU CLDN22 /// WWC2 (11732394_at) / Fold change /veh CLDN22 /// WWC2 (11732394_at) / RFU HLA-DPB1 (11760878_x_at) / Fold change /veh HLA-DPB1 (11760878_x_at) / RFU SPINT1 (11716480_a_at) / Fold change /veh SPINT1 (11716480_a_at) / RFU GAP43 (11754022_s_at) / Fold change /veh GAP43 (11754022_s_at) / RFU A4GNT (11735810_at) / Fold change /veh A4GNT (11735810_at) / RFU PRB3 (11715151_x_at) / Fold change /veh PRB3 (11715151_x_at) / RFU TUBB4B (11761932_at) / Fold change /veh TUBB4B (11761932_at) / RFU CAPN14 (11732068_a_at) / Fold change /veh CAPN14 (11732068_a_at) / RFU TMCC2 (11721928_a_at) / Fold change /veh TMCC2 (11721928_a_at) / RFU IRGQ (11745062_a_at) / Fold change /veh IRGQ (11745062_a_at) / RFU FAM174B (11720279_a_at) / Fold change /veh FAM174B (11720279_a_at) / RFU TMPRSS4 (11748680_a_at) / Fold change /veh TMPRSS4 (11748680_a_at) / RFU FAM212B (11763350_a_at) / Fold change /veh FAM212B (11763350_a_at) / RFU PLEKHG5 (11743358_a_at) / Fold change /veh PLEKHG5 (11743358_a_at) / RFU ZSCAN30 (11745921_a_at) / Fold change /veh ZSCAN30 (11745921_a_at) / RFU CMKLR1 (11741424_a_at) / Fold change /veh CMKLR1 (11741424_a_at) / RFU LOC101060620 /// MAPK8IP1 (11723275_at) / Fold change /veh LOC101060620 /// MAPK8IP1 (11723275_at) / RFU SPTSSB (11747773_x_at) / Fold change /veh SPTSSB (11747773_x_at) / RFU PRSS12 (11739890_at) / Fold change /veh PRSS12 (11739890_at) / RFU BIN1 (11741810_x_at) / Fold change /veh BIN1 (11741810_x_at) / RFU WNT11 (11732464_a_at) / Fold change /veh WNT11 (11732464_a_at) / RFU C10orf10 (11716521_a_at) / Fold change /veh C10orf10 (11716521_a_at) / RFU C5orf56 (11738089_at) / Fold change /veh C5orf56 (11738089_at) / RFU CYB561 (11721691_x_at) / Fold change /veh CYB561 (11721691_x_at) / RFU ANKRD19P (11752326_a_at) / Fold change /veh ANKRD19P (11752326_a_at) / RFU OR2T12 /// OR2T33 /// OR2T8 (11738714_s_at) / Fold change /veh OR2T12 /// OR2T33 /// OR2T8 (11738714_s_at) / RFU VCAN (11748164_a_at) / Fold change /veh VCAN (11748164_a_at) / RFU JSRP1 (11732532_at) / Fold change /veh JSRP1 (11732532_at) / RFU KRTAP10-11 (11738290_x_at) / Fold change /veh KRTAP10-11 (11738290_x_at) / RFU MYO3A (11730013_a_at) / Fold change /veh MYO3A (11730013_a_at) / RFU EBF3 (11725865_a_at) / Fold change /veh EBF3 (11725865_a_at) / RFU CAMK2N1 (11719241_x_at) / Fold change /veh CAMK2N1 (11719241_x_at) / RFU C5orf56 (11738088_a_at) / Fold change /veh C5orf56 (11738088_a_at) / RFU OLFML3 (11715873_a_at) / Fold change /veh OLFML3 (11715873_a_at) / RFU LOC100653217 /// NTM (11731650_a_at) / Fold change /veh LOC100653217 /// NTM (11731650_a_at) / RFU MAPK11 (11762145_a_at) / Fold change /veh MAPK11 (11762145_a_at) / RFU FIZ1 (11724087_x_at) / Fold change /veh FIZ1 (11724087_x_at) / RFU OASL (11726364_x_at) / Fold change /veh OASL (11726364_x_at) / RFU SOX15 (11748057_x_at) / Fold change /veh SOX15 (11748057_x_at) / RFU CD79A (11719716_a_at) / Fold change /veh CD79A (11719716_a_at) / RFU HIST1H1D (11736915_at) / Fold change /veh HIST1H1D (11736915_at) / RFU CASKIN2 (11723855_a_at) / Fold change /veh CASKIN2 (11723855_a_at) / RFU LOC730098 (11760151_x_at) / Fold change /veh LOC730098 (11760151_x_at) / RFU OR4N2 (11742367_at) / Fold change /veh OR4N2 (11742367_at) / RFU PRRT2 (11749266_a_at) / Fold change /veh PRRT2 (11749266_a_at) / RFU SNX32 (11753110_a_at) / Fold change /veh SNX32 (11753110_a_at) / RFU CDHR5 (11726645_a_at) / Fold change /veh CDHR5 (11726645_a_at) / RFU RCAN1 (11760418_a_at) / Fold change /veh RCAN1 (11760418_a_at) / RFU FAM167A (11723789_a_at) / Fold change /veh FAM167A (11723789_a_at) / RFU FAM26E (11764081_at) / Fold change /veh FAM26E (11764081_at) / RFU ISYNA1 (11749810_s_at) / Fold change /veh ISYNA1 (11749810_s_at) / RFU ACY1 (11761880_at) / Fold change /veh ACY1 (11761880_at) / RFU 11764098_at / Fold change /veh 11764098_at / RFU SAMD14 (11745864_x_at) / Fold change /veh SAMD14 (11745864_x_at) / RFU NPB (11741838_a_at) / Fold change /veh NPB (11741838_a_at) / RFU TMPRSS6 (11731388_a_at) / Fold change /veh TMPRSS6 (11731388_a_at) / RFU KRTAP10-2 (11738614_at) / Fold change /veh KRTAP10-2 (11738614_at) / RFU ARHGAP8 /// PRR5-ARHGAP8 (11727945_x_at) / Fold change /veh ARHGAP8 /// PRR5-ARHGAP8 (11727945_x_at) / RFU KRTAP5-7 /// NADSYN1 (11734609_at) / Fold change /veh KRTAP5-7 /// NADSYN1 (11734609_at) / RFU RASL12 (11751679_a_at) / Fold change /veh RASL12 (11751679_a_at) / RFU CDKN2B (11736163_a_at) / Fold change /veh CDKN2B (11736163_a_at) / RFU PRF1 (11729649_at) / Fold change /veh PRF1 (11729649_at) / RFU, ZNF638 /// ZNF638-IT1 / Fold change vs veh, ZNF638 /// ZNF638-IT1 / RFU, PANK3 / Fold change vs veh, PANK3 / RFU, SH3YL1 / Fold change vs veh, SH3YL1 / RFU, ZEB2 / Fold change vs veh, ZEB2 / RFU, NRIP1 / Fold change vs veh, NRIP1 / RFU, PTTG1IP / Fold change vs veh, PTTG1IP / RFU, CAPN2 / Fold change vs veh, CAPN2 / RFU, MED14 / Fold change vs veh, MED14 / RFU, SNORA58 / Fold change vs veh, SNORA58 / RFU, C1orf63 / Fold change vs veh, C1orf63 / RFU, LRRFIP1 / Fold change vs veh, LRRFIP1 / RFU, NDUFAF7 / Fold change vs veh, NDUFAF7 / RFU, SLC12A2 / Fold change vs veh, SLC12A2 / RFU, IBTK / Fold change vs veh, IBTK / RFU, ESF1 / Fold change vs veh, ESF1 / Fold change vs veh, TMEM50B / RFU, TAOK1 / Fold change vs veh, TAOK1 / RFU, ACBD3 / Fold change vs veh, ACBD3 / RFU, TMA16 / Fold change vs veh, TMA16 / RFU, RWDD3 / Fold change vs veh, RWDD3 / RFU, BCAT1 / Fold change vs veh, BCAT1 / RFU, EDEM3 / Fold change vs veh, EDEM3 / RFU, TMEM33 / Fold change vs veh, TMEM33 / RFU, WDR75 / Fold change vs veh, WDR75 / RFU, AHCTF1 / Fold change vs veh, AHCTF1 / RFU, TFRC / Fold change vs veh, TFRC / RFU, ZDHHC17 / Fold change vs veh, ZDHHC17 / RFU, NOM1 / Fold change vs veh, NOM1 / RFU, ARL8B / Fold change vs veh, ARL8B / RFU, ZBTB11 / Fold change vs veh, ZBTB11 / RFU, TAMM41 / Fold change vs veh, TAMM41 / RFU, KIAA1704 /// LOC100996395 / Fold change vs veh, KIAA1704 /// LOC100996395 / RFU, ING1 / Fold change vs veh, ING1 / RFU, TRMT61B / Fold change vs veh, TRMT61B / RFU, FUBP3 / Fold change vs veh, FUBP3 / RFU, TP53 / Fold change vs veh, TP53 / RFU, TNKS2 / Fold change vs veh, TNKS2 / RFU, ZFP14 / Fold change vs veh, ZFP14 / RFU, ACTR2 / Fold change vs veh, ACTR2 / RFU, PPP3R1 / Fold change vs veh, PPP3R1 / RFU, PIK3R1 / Fold change vs veh, PIK3R1 / RFU, HNRNPA1 / Fold change vs veh, HNRNPA1 / RFU, RNF170 / Fold change vs veh, RNF170 / RFU, ZNF28 / Fold change vs veh, ZNF28 / RFU, RNGTT / Fold change vs veh, RNGTT / RFU, OGT / Fold change vs veh, OGT / RFU, BRD1 / Fold change vs veh, BRD1 / RFU, MARS / Fold change vs veh, MARS / RFU, ZNF655 / Fold change vs veh, ZNF655 / RFU, FAHD1 / Fold change vs veh, FAHD1 / RFU, BDP1 / Fold change vs veh, BDP1 / RFU, LRRCC1 / Fold change vs veh, LRRCC1 / RFU, ARID1A / Fold change vs veh, ARID1A / RFU, ZNF146 / Fold change vs veh, ZNF146 / RFU, ZNF330 / Fold change vs veh, ZNF330 / RFU, GPN3 / Fold change vs veh, GPN3 / RFU, C9orf123 / Fold change vs veh, C9orf123 / RFU, N4BP2L2 / Fold change vs veh, N4BP2L2 / RFU, ARFIP1 / Fold change vs veh, ARFIP1 / RFU, FAM179B / Fold change vs veh, FAM179B / RFU, BCL10 / Fold change vs veh, BCL10 / RFU, UHRF1BP1L / Fold change vs veh, UHRF1BP1L / RFU, BET1 / Fold change vs veh, BET1 / RFU, CNOT2 / Fold change vs veh, CNOT2 / RFU, ZNF268 / Fold change vs veh, ZNF268 / Fold change vs veh, ZNF507 / RFU, DGCR2 / Fold change vs veh, DGCR2 / RFU, WDSUB1 / Fold change vs veh, WDSUB1 / Fold change vs veh, HSP90B1 /// MIR3652 / RFU, ADSS / Fold change vs veh, ADSS / RFU, GK / Fold change vs veh, GK / RFU, ZNF148 / Fold change vs veh, ZNF148 / RFU, TAF9 / Fold change vs veh, TAF9 / RFU, SLC1A5 / Fold change vs veh, SLC1A5 / RFU, SLMO2 / Fold change vs veh, SLMO2 / RFU, ABCC4 / Fold change vs veh, ABCC4 / RFU, LOC101060439 /// RAP1B / Fold change vs veh, LOC101060439 /// RAP1B / RFU, RFX7 / Fold change vs veh, RFX7 / RFU, GTPBP10 / Fold change vs veh, GTPBP10 / RFU, CNEP1R1 / Fold change vs veh, CNEP1R1 / RFU, BIVM-ERCC5 /// ERCC5 / Fold change vs veh, BIVM-ERCC5 /// ERCC5 / RFU, ILF3 / Fold change vs veh, ILF3 / RFU 11762660_at / Fold change /veh 11762660_at / RFU VCAN (11757783_s_at) / Fold change /veh VCAN (11757783_s_at) / RFU DDX43 (11728927_at) / Fold change /veh DDX43 (11728927_at) / RFU KRT8 (11758188_x_at) / Fold change /veh KRT8 (11758188_x_at) / RFU NKD1 (11759106_at) / Fold change /veh NKD1 (11759106_at) / RFU SRD5A1 (11742802_a_at) / Fold change /veh SRD5A1 (11742802_a_at) / RFU TPSAB1 /// TPSB2 (11721975_s_at) / Fold change /veh TPSAB1 /// TPSB2 (11721975_s_at) / RFU GSTM3 (11746129_a_at) / Fold change /veh GSTM3 (11746129_a_at) / RFU IL23R (11737362_x_at) / Fold change /veh IL23R (11737362_x_at) / RFU TMEM51 (11727254_a_at) / Fold change /veh TMEM51 (11727254_a_at) / RFU PIWIL2 (11732686_x_at) / Fold change /veh PIWIL2 (11732686_x_at) / RFU ORM1 (11744905_x_at) / Fold change /veh ORM1 (11744905_x_at) / RFU CCDC152 (11743942_at) / Fold change /veh CCDC152 (11743942_at) / RFU ECM1 (11717891_a_at) / Fold change /veh ECM1 (11717891_a_at) / RFU IL23R (11748794_a_at) / Fold change /veh IL23R (11748794_a_at) / RFU TNFAIP8L3 (11732012_x_at) / Fold change /veh TNFAIP8L3 (11732012_x_at) / RFU MBOAT4 (11741988_at) / Fold change /veh MBOAT4 (11741988_at) / RFU 11764193_at / Fold change /veh 11764193_at / RFU TMEM53 (11763286_at) / Fold change /veh TMEM53 (11763286_at) / RFU MAGEB2 (11727129_at) / Fold change /veh MAGEB2 (11727129_at) / RFU TMEM200A (11744735_a_at) / Fold change /veh TMEM200A (11744735_a_at) / RFU CCDC152 (11751479_a_at) / Fold change /veh CCDC152 (11751479_a_at) / RFU FAM211A (11726209_a_at) / Fold change /veh FAM211A (11726209_a_at) / RFU RGS16 (11746705_a_at) / Fold change /veh RGS16 (11746705_a_at) / RFU VCAN (11755009_s_at) / Fold change /veh VCAN (11755009_s_at) / RFU RHOB (11743442_s_at) / Fold change /veh RHOB (11743442_s_at) / RFU RGS16 (11720943_a_at) / Fold change /veh RGS16 (11720943_a_at) / RFU RGS16 (11720944_at) / Fold change /veh RGS16 (11720944_at) / RFU, VPS4B / Fold change vs veh, VPS4B / RFU, CREB1 / Fold change vs veh, CREB1 / RFU, DNAJC13 / Fold change vs veh, DNAJC13 / RFU, GNAQ / Fold change vs veh, GNAQ / RFU, CDK5R1 / Fold change vs veh, CDK5R1 / RFU, ZRANB3 / Fold change vs veh, ZRANB3 / RFU, CUL4A / Fold change vs veh, CUL4A / RFU, CCNY / Fold change vs veh, CCNY / RFU, UFL1 / Fold change vs veh, UFL1 / RFU, COG3 / Fold change vs veh, COG3 / RFU, DIAPH2 / Fold change vs veh, DIAPH2 / RFU, SKA2 / Fold change vs veh, SKA2 / RFU, AFF3 / Fold change vs veh, AFF3 / RFU, LMF1 / Fold change vs veh, LMF1 / RFU, IPO11 / Fold change vs veh, IPO11 / RFU, DFFB / Fold change vs veh, DFFB / RFU, FOXP1 / Fold change vs veh, FOXP1 / RFU, CARD8 / Fold change vs veh, CARD8 / RFU, STRN3 / Fold change vs veh, STRN3 / RFU, ADK / Fold change vs veh, ADK / RFU, RASSF2 / Fold change vs veh, RASSF2 / RFU, WIPF1 / Fold change vs veh, WIPF1 / RFU, LARP1B / Fold change vs veh, LARP1B / RFU, RASA1 / Fold change vs veh, RASA1 / RFU, RB1 / Fold change vs veh, RB1 / RFU, PPFIA1 / Fold change vs veh, PPFIA1 / RFU, MAT2A / Fold change vs veh, MAT2A / RFU, CCT5 / Fold change vs veh, CCT5 / RFU, WDR92 / Fold change vs veh, WDR92 / RFU, CUX1 / Fold change vs veh, CUX1 / RFU, TTC7A / Fold change vs veh, TTC7A / RFU, TMEM135 / Fold change vs veh, TMEM135 / RFU, DEPTOR / Fold change vs veh, DEPTOR / RFU, CPM / Fold change vs veh, CPM / RFU, DNAJB6 / Fold change vs veh, DNAJB6 / RFU, CACNA2D3 / Fold change vs veh, CACNA2D3 / RFU, DTX4 / Fold change vs veh, DTX4 / RFU, TFCP2 / Fold change vs veh, TFCP2 / RFU, GMCL1 /// GMCL1P1 / Fold change vs veh, GMCL1 /// GMCL1P1 / RFU, AEBP2 / Fold change vs veh, AEBP2 / RFU, SNHG1 /// SNORD22 /// SNORD25 /// SNORD26 /// SNORD27 /// SNORD28 /// SNORD29 /// SNORD31 / Fold change vs veh, SNHG1 /// SNORD22 /// SNORD25 /// SNORD26 /// SNORD27 /// SNORD28 /// SNORD29 /// SNORD31 / Fold change (Aza/veh), C12orf56 (ProbeSet 11735607_a_at) / Fold change (ACY-1035/veh), C12orf56 (ProbeSet 11735607_a_at) / Fold change (Aza/veh), FGFR1OP (ProbeSet 11751329_s_at) / Fold change (ACY-1035/veh), FGFR1OP (ProbeSet 11751329_s_at) / Fold change (Aza/veh), VPS36 (ProbeSet 11739960_a_at) / Fold change (ACY-1035/veh), VPS36 (ProbeSet 11739960_a_at) / RFU SYPL1 (11715823_x_at) / Fold change /veh SYPL1 (11715823_x_at) / RFU IGFBP7 (11715501_s_at) / Fold change /veh IGFBP7 (11715501_s_at) / RFU REEP3 (11722064_at) / Fold change /veh REEP3 (11722064_at) / RFU IGLL1 (11728026_x_at) / Fold change /veh IGLL1 (11728026_x_at): dose or concentration left out as unconfirmed", "conditions": "ProbeSet 11716999_a_at; LIST D", "data": [{"molecule": "Nc1ncn([C@@H]2O[C@H](CO)[C@@H](O)[C@H]2O)c(=O)n1", "note": "[azacitidine]", "values": [{"measurement": "RFU, RASA1", "value": 172.86, "unit": "RFU"}]}]}
